# Key:
# Assay type in all cases: functional
# Helminthosporium [1] = assay: Antifungal activity against Helminthosporium oryzae at 50 ppm by disc diffusion method; design: unit not given here
# Helminthosporium [2] = assay: Antifungal activity against Helminthosporium oryzae at 100 ppm by disc diffusion method; design: unit not given here
# Aspergillus niger [3] = assay: Antifungal activity against Aspergillus niger at 50 ppm by disk diffusion method; design: unit not given here
# Aspergillus niger [4] = assay: Antifungal activity against Aspergillus niger at 25 ppm by disk diffusion method; design: unit not given here
# Aspergillus niger [5] = assay: Antifungal activity against Aspergillus niger at 100 ppm by disk diffusion method; design: unit not given here
# Staphylococcus aureus [6] = assay: Antibacterial activity against Staphylococcus aureus at 100 ppm by disk diffusion method; design: unit not given here
# Staphylococcus aureus [7] = assay: Antibacterial activity against Staphylococcus aureus at 50 ppm by disk diffusion method
# Escherichia coli [8] = assay: Antibacterial activity against Escherichia coli at 25 ppm by disk diffusion method; design: unit not given here
# Escherichia coli [9] = assay: Antibacterial activity against Escherichia coli at 100 ppm by disk diffusion method; design: unit not given here
# Escherichia coli [10] = assay: Antibacterial activity against Escherichia coli at 50 ppm by disk diffusion method; design: unit not given here
# Helminthosporium [11] = assay: Antifungal activity against Helminthosporium oryzae at 25 ppm by disc diffusion method; design: unit not given here
# Staphylococcus aureus [12] = assay: Antibacterial activity against Staphylococcus aureus at 25 ppm by disk diffusion method; design: unit not given here
SMILES,inhibition zone (IZ) (Helminthosporium [1]),inhibition zone (IZ) (Helminthosporium [2]),inhibition zone (IZ) (Aspergillus niger [3]),inhibition zone (IZ) (Aspergillus niger [4]),inhibition zone (IZ) (Aspergillus niger [5]),inhibition zone (IZ) (Staphylococcus aureus [6]),inhibition zone (IZ) (Staphylococcus aureus [7]),inhibition zone (IZ) (Escherichia coli [8]),inhibition zone (IZ) (Escherichia coli [9]),inhibition zone (IZ) (Escherichia coli [10]),inhibition zone (IZ) (Helminthosporium [11]),inhibition zone (IZ) (Staphylococcus aureus [12])
[Se]=P1(CBr)CNc2cccc3cccc(c23)NC1,8,9,6,4,10,9,8%,4,12,6,,
CCC(C)OCP1(=S)CNc2cccc3cccc(c23)NC1 (centres undefined),12,13,10,9,14,13,12%,9,14,10,8,8
CC(Cc1ccccc1)OCP1(=S)CNc2cccc3cccc(c23)NC1 (centres undefined),9,10,9,8,13,10,9%,8,8,9,7,7
CCC(CO)NCP1(=S)CNc2cccc3cccc(c23)NC1 (centres undefined),9,11,10,8,10,11,9%,8,10,10,5,5
CC(NCP1(=S)CNc2cccc3cccc(c23)NC1)c1ccccc1 (centres undefined),7,12,7,6,9,12,7%,6,11,7,8,8
CCC(C)OCP1(=[Se])CNc2cccc3cccc(c23)NC1 (centres undefined),10,14,10,8,13,14,10%,8,13,10,7,7
CC(Cc1ccccc1)OCP1(=[Se])CNc2cccc3cccc(c23)NC1 (centres undefined),10,12,8,7,10,12,10%,7,10,8,7,7
CCC(CO)NCP1(=[Se])CNc2cccc3cccc(c23)NC1 (centres undefined),9,10,6,4,9,10,6%,7,19,6,6,8
CC(NCP1(=[Se])CNc2cccc3cccc(c23)NC1)c1ccccc1 (centres undefined),8,9,9,6,12,11,9%,3,10,5,5,5
S=P1(CBr)CNc2cccc3cccc(c23)NC1,11,13,5,3,9,13,11%,3,10,5,9,9
CC1(C)S[C@@H]2[C@H](NC(=O)Cc3ccccc3)C(=O)N2[C@H]1C(=O)O [PENICILLIN G],,,,,,,8%,,,,,

# Source: ChEMBL document CHEMBL3046771, “Synthesis, spectral, and antimicrobial evaluation of some new 8-membered phosphorus heterocyclic compounds” (2011)
